Measured values reported in US7045532B2 (Millennium Pharmaceuticals, Inc., priority 1999, dated 2006).
Read-outs that look alike come from different tables or passages of the source.

Target: T1, ACE-2 (Homo sapiens, UniProt Q9BYF1)
T1 construct: a stop codon inserted after the serine immediately preceding the transmembrane domain; made in house; host or cells: CHO K1 cells (transient transfection, purified from conditioned medium)
Experiment: ACE-2 Competitive Substrate Assay (ACS Assay)
Type: biochemical

[1] = Ki class, compounds tested in 5% DMSO, 12 compound concentrations, Ki=Kiapp/(1+[S]/Km), read-out: Human ACE-2 Activity
[2] = Table 3, very good ACE-2 inhibiting compounds, species not given, read-out: ACE-2 Activity, Ki

T1 sequence (Q9BYF1 18-740 limits assumed): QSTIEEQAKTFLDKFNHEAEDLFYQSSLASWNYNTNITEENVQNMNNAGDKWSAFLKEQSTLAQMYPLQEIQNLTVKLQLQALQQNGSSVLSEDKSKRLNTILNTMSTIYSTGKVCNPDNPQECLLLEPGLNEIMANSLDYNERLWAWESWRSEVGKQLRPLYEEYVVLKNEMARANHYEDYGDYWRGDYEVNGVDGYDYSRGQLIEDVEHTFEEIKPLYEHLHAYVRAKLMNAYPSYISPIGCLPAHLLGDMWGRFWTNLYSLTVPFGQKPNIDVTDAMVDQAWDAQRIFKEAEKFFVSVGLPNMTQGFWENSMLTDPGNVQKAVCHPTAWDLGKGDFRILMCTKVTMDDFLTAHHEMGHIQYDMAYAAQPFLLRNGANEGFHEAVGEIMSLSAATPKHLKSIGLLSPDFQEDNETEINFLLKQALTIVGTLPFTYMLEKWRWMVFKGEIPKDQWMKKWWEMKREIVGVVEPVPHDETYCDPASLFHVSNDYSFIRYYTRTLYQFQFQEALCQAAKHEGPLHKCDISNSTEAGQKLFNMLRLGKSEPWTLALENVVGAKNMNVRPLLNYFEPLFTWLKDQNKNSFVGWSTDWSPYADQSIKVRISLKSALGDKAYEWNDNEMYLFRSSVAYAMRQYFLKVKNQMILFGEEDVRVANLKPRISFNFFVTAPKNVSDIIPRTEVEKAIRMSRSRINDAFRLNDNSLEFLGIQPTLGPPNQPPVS

Row | SMILES | Ki [1] [µM] | Ki [2] [µM] | Ki (Ki class, compounds tested in 5% DMSO, 12 concentrations, read-out: Human ACE-2 Activity) [µM]
1 | CC(C)C[C@H](N[C@@H](Cc1ccnn1Cc1cc(Cl)cc(Cl)c1)C(=O)O)C(=O)O [MV, 2-{1-carboxy-2-[2-(3,5-dichlorobenzyl)-2H-pyrazol-3-yl]-ethylamino}-4-methyl-pentanoic acid] | < 0.1 | < 0.05 | 
2 | CC(C)C[C@H](N[C@@H](Cc1cccc(-c2cccc3ccccc23)c1)C(=O)O)C(=O)O [MX, (S,S)-2-[1-Carboxy-2-(3-naphthalen-1-yl-phenyl)-ethylamino]-4-methyl-pentanoic acid] | > 0.5 |  | 
3 | CCOC(=O)[C@H](Cc1cncn1Cc1cc(Cl)cc(Cl)c1)N[C@@H](CC(C)C)C(=O)O [MY, (S,S) 2-{2-[3-(3,5-Dichloro-benzyl)-3H-imidazol-4-yl]-1-ethoxycarbonyl-ethylamino}-4-methyl-pentanoic acid] | 0.1 to 0.5 |  | 
4 | CC(C)C[C@@H](N[C@H](Cc1cncn1Cc1cc(Cl)cc(Cl)c1)C(=O)O)C(=O)O [MZ, (R,R)-2-{1-Carboxy-2-[3-(3,5-dichloro-benzyl)-3H-imidazol-4-yl]-ethylamino}-4-methyl-pentanoic acid] | 0.1 to 0.5 |  | 
5 | CC(C)C[C@H](N[C@@H](Cc1cccc(OCc2cc(F)cc(F)c2)c1)C(=O)O)C(=O)O [NA, 2-[1-Carboxy-2-[3-(3,5-difluoro-benzyloxy)-phenyl]-ethylamino]-4-methyl-pentanoic acid] | 0.1 to 0.5 |  | 
6 | C=CCOc1cccc(C[C@H](N[C@@H](CC(C)C)C(=O)O)C(=O)O)c1 [NB, S,S-2-[2-(3-Allyloxy-phenyl)-1-carboxy-ethylamino]-4-methyl pentanoic acid] | 0.1 to 0.5 |  | 
7 | CC(C)C[C@H](N[C@@H](CN1CCN(c2cc(F)cc(F)c2)C1=O)C(=O)O)C(=O)O [NC, 2-{1-Carboxy-2-[3-(3,5-difluoro-phenyl)-2-oxo-imidazolidin-1-yl]-ethylamino}-4-methyl-pentanoic acid] | > 0.5 |  | 
8 | CC(C)C[C@H](N[C@@H](CNC(=O)c1cc2cc(Cl)ccc2[nH]1)C(=O)O)C(=O)O [ND, 2-{1-Carboxy-2-[(5-chloro-1H-indole-2-carbonyl)-amino]-ethylamino}-4-methyl-pentanoic acid] | > 0.5 |  | 
9 | CC(C)C[C@H](N[C@@H](Cc1ccc(-c2ccsc2)cc1)C(=O)O)C(=O)O [NF, (S,S)-2-[1-Carboxy-2-(4-thiophen-3-yl-phenyl)-ethylamino]-4-methyl-pentanoic acid] | < 0.1 | 0.05 to 0.1 | 
10 | CC(C)C[C@H](N[C@@H](Cc1ccc(-c2cc(Cl)cc(Cl)c2)cc1)C(=O)O)C(=O)O [NG, (S,S)-2-[1-Carboxy-2-(3′,5′-dichloro-biphenyl-4-yl)-ethylamino]-4-methyl-pentanoic acid] | < 0.1 | < 0.05 | 
11 | Cc1ccc(-c2ccc(C[C@H](N[C@@H](CC(C)C)C(=O)O)C(=O)O)cc2)cc1 [NH, (S,S)-2-[1-Carboxy-2-(4′-methyl-biphenyl-4-yl)-ethylamino]-4-methyl-pentanoic acid] | < 0.1 | < 0.05 | 
12 | CC(C)C[C@H](N[C@@H](Cc1cncn1Cc1ccc(I)cc1)C(=O)O)C(=O)O [NI, 2-[1-Carboxy-2-[3-(4-iodobenzyl)-3H-imidazol-4-yl]-ethylamino]-4-methyl-pentanoic acid] | < 0.1 | < 0.05 | 
13 | CC(C)C[C@H](N[C@@H](Cc1cncn1Cc1cc(F)cc(F)c1)C(=O)O)C(=O)O [NJ, (S,S) 2-{1-Carboxy-2-[3-(3,5-difluoro-benzyl)-3H-imidazol-4-yl]-ethylamino}-4-methyl-pentanoic acid] | < 0.1 | < 0.05 | 
14 | CC(C)C[C@H](N[C@@H](Cn1ccn(CCc2ccc(F)cc2)c1=O)C(=O)O)C(=O)O [NK, 2-(1-Carboxy-2-[3-[2-(4-fluoro-phenyl)-ethyl]-2-oxo2,3-dihydro-imidazol-1-yl)-ethylamino]-4-methyl-pentanoic acid] | 0.1 to 0.5 |  | 
15 | CC(C)C[C@H](N[C@@H](Cn1ccn(CC2CCCCC2)c1=O)C(=O)O)C(=O)O [NL, 2-[1-Carboxy-2-(3-cyclohexylmethyl-2-oxo-2,3-dihydro-imidazol-1-yl)-ethylamino]-4-methyl-pentanoic acid] | 0.1 to 0.5 |  | 
16 | CC(C)C[C@H](N[C@@H](Cc1cncn1Cc1cc(Cl)cc(Cl)c1)C(=O)O)C(=O)OC(C)(C)C [NM, 2-[1-Carboxy-2-[3-(3,5-dichloro-benzyl)-3H-imidazol-4-yl]-ethylamino)4-methyl-pentanoic acidtert-butyl ester] | < 0.1 | < 0.05 | 
17 | Cc1ccc(-c2ccc(C[C@H](N[C@@H](CC(C)C)C(=O)O)C(=O)O)o2)cc1 [NO, (S,S)-2[1-Carboxy-2-(5-p-tolyl-furan-2-yl)-ethylamino]-4-methyl-pentanoic acid] | 0.1 to 0.5 |  | 
18 | CC(C)C[C@H](N[C@@H](Cn1ccn(CCc2cccc(F)c2)c1=O)C(=O)O)C(=O)O [NP, 2-(1-Carboxy-2-{3-[2-(3-fluoro-phenyl)-ethyl]-2-oxo2,3-dihydro-imidazol-1-yl]-ethylamino)-4-methyl-pentanoic acid] | 0.1 to 0.5 |  | 
19 | CC(C)C[C@H](N[C@@H](Cn1ccn(Cc2ccc(F)cc2)c1=O)C(=O)O)C(=O)O [NQ, 2-{1-Carboxy-2-[3-(4-fluoro-benzyl)-2-oxo-2,3-dihydro-imidazol-1-yl]-ethylamino}-4-methyl-pentanoic acid] | 0.1 to 0.5 |  | 

Row | SMILES | Ki [1] [µM] | Ki [2] [µM] | Ki (Ki class, compounds tested in 5% DMSO, 12 concentrations, read-out: Human ACE-2 Activity) [µM]
20 | CC(C)C[C@H](N[C@@H](Cc1ccc(-c2ccccc2)o1)C(=O)O)C(=O)O [NR, (S,S)-2-[1-Carboxy-2-(5-phenyl-furan-2-yl)-ethylamino]-4-methyl-pentanoic acid] | 0.1 to 0.5 |  | 
21 | CC(C)C[C@H](N[C@@H](Cc1ccc(-c2cc(Cl)cc(Cl)c2)o1)C(=O)O)C(=O)O [NS, (S,S)-2-{1-Carboxy-2-[5-(3,5-dichlorophenyl)-furan-2-yl]-ethylamino}-4-methyl-pentanoic acid] | 0.1 to 0.5 |  | 
22 | Cc1cc(C)cc(-c2ccc(C[C@H](N[C@@H](CC(C)C)C(=O)O)C(=O)O)o2)c1 [NT, (S,S)-2-{1-Carboxy-2-[5-(3,5-dimethyl-phenyl)-furan-2-yl]-ethylamino}-4-methyl-pentanoic acid] | 0.1 to 0.5 |  | 
23 | CC(C)C[C@H](N[C@@H](Cc1ccc(-c2cc(F)cc(F)c2)o1)C(=O)O)C(=O)O [NU, (S,S)-2-{1-Carboxy-2-[5-(3,5-difluoro-phenyl)-furan-2-yl]-ethylamino}-4-methyl-pentanoic acid] | > 0.5 |  | 
24 | CC(C)C[C@H](N[C@@H](Cc1ccc(-c2ccsc2)o1)C(=O)O)C(=O)O [NV, (S,S)-2-[1-Carboxy-2-(5-thiophen-3-yl-furan-2-yl)-ethylamino]-4-methyl-pentanoic acid] | > 0.5 |  | 
25 | Cc1ccc2nc(NC(=O)C[C@H](N[C@@H](CC(C)C)C(=O)O)C(=O)O)sc2c1 [NW, 2-[1-Carboxy-2-(6-methyl-benzothiazol-2-ylcarbamoyl)-ethylamino]-4-methyl-pentanoic acid] | 0.1 to 0.5 | < 0.05 | 
26 | CC(C)C[C@H](N[C@@H](Cc1ccc(O)cc1)C(=O)O)C(=O)O [NX, 2-[1-Carboxy-2-(4-hydroxy-phenyl)-ethylamino]-4-methyl-pentanoic acid] | > 0.5 |  | 
27 | CC(C)C[C@H](N[C@@H](Cc1cccc(OCc2cc(Cl)cc(Cl)c2)c1)C(=O)O)C(=O)O [NY, 2-[1-Carboxy-2-[3-(3,5-dichloro-benzyloxy)-phenyl]-ethylamino]-4-methyl-pentanoic acid] | < 0.1 | 0.05 to 0.1 | 
28 | CC(C)C[C@H](N[C@@H](Cc1cccc(OCc2ccncc2)c1)C(=O)O)C(=O)O [NZ, S,S-2-{1-Carboxy-2-[3-(pyridin-4-ylmethoxy)-phenyl]-ethylamino}-4-methyl pentanoic acid] | > 0.5 |  | 
29 | CC(N[C@@H](Cc1ccccc1)C(=O)O)C(=O)O (stereo partly shown) [O, 2-(1-Carboxy-ethylamino)-3-phenyl-propionic acid] |  |  | > 0.5
30 | Cc1cc(C)cc(COc2cccc(C[C@H](N[C@@H](CC(C)C)C(=O)O)C(=O)O)c2)c1 [OA, 2-[1-Carboxy-2-[3-(3,5-dimethyl-benzyloxy)-phenyl]-ethylamino]-4-methyl-pentanoic acid] | > 0.5 |  | 
31 | CC(C)C[C@H](N[C@@H](Cc1cccc(OCc2ccc(Cl)cc2)c1)C(=O)O)C(=O)O [OB, 2-[1-Carboxy-2-[3-(4-chloro-benzyloxy)-phenyl)-ethylamino]-4-methyl-pentanoic acid] | 0.1 to 0.5 |  | 
32 | CC(C)CC(NC(Cc1cccc(OCc2ccc(C(F)(F)F)cc2C(F)(F)F)c1)C(=O)O)C(=O)O (stereo not shown) [OC, 2-{2-[3-(2,4-Bis-trifluoromethyl-benzyloxy)-phenyl]-1-carboxy-ethylamino}-4-methyl-pentanoic acid] | > 0.5 |  | 
33 | CC(C)C[C@H](N[C@@H](Cc1ccn(-c2ccccc2)n1)C(=O)O)C(=O)O [OD, 2-[1-carboxy-2-(1phenyl-1H-pyrazol-3-yl)-ethylamino]-4-methyl-pentanoic acid] | 0.1 to 0.5 |  | 
34 | CC(C)C[C@H](N[C@@H](Cn1ccn(Cc2cccc(Cl)c2)c1=O)C(=O)O)C(=O)O [OE, (S,S)-2-{1-Carboxy-2-[3-(3-chloro-benzyl)-2-oxo-2,3-dihydro-imidazol-1-yl]-ethylamino}-4-methyl-pentanoic acid] | < 0.1 | < 0.05 | 
35 | CC(C)C[C@H](N[C@@H](Cc1ccc(Cc2cc(Cl)cc(Cl)c2)cc1)C(=O)O)C(=O)O [OF, (S,S)-2-{1-Carboxy-2-[4-(3,5-dichloro-benzyl)-phenyl]-ethylamino}-4-methyl-pentanoic acid] | > 0.5 |  | 
36 | CC(C)C[C@H](N[C@@H](Cc1ccc(Cc2ccccc2)cc1)C(=O)O)C(=O)O [OG, (S,S)-2-[2-(4-Benzyl-phenyl)-1-carboxy-ethylamino]-4-methyl-pentanoic acid] | < 0.1 | 0.05 to 0.1 | 
37 | CC(C)C[C@H](N[C@@H](CC(=O)Nc1nc(-c2ccccc2)cs1)C(=O)O)C(=O)O [OH, (S,S)-2-[1-Carboxy-2-(4-phenyl-thiazol-2-ylcarbamoyl)-ethylamino]-4-methyl-pentanoic acid] | > 0.5 |  | 
38 | COc1ccc(-c2ccc(C[C@H](N[C@@H](CC(C)C)C(=O)O)C(=O)O)o2)cc1 [OI, (S,S)-2-{1-Carboxy-2-[5-(4-methoxy-phenyl)-furan-2-yl]-ethylamino}-4-methyl-pentanoic acid] | 0.1 to 0.5 |  | 
